Type in all cases: functional, organism-based, Hepacivirus hominis
Assay [1] deals with Hepatitis C virus. The assay is described as follows: Antiviral activity against HCV genotype 1a by real time PCR analysis. The settings on record: subtype 1a. On the technique in general: Quantitative PCR measures a nucleic acid by following its amplification.
Assay [2] concerns Hepatitis C virus. The assay is described as follows: Antiviral activity against HCV genotype 1b by real time PCR analysis.
For assay [3], the system named is Hepatitis C virus. The assay is described as follows: Antiviral activity against HCV genotype 2a by real time PCR analysis.
In assay [4] the test system is Hepatitis C virus. The assay is described as follows: Antiviral activity against HCV genotype 1a harboring NS5A Y93H mutant by real time PCR analysis. The settings on record: subtype 1a.
Assay [5] deals with Hepatitis C virus. The assay is described as follows: Antiviral activity against HCV genotype 3a by real time PCR analysis.
Assay [6] concerns Hepatitis C virus. The assay is described as follows: Antiviral activity against HCV genotype 1a in presence of 10% FBS by real time PCR analysis. The settings on record: subtype 1a.
In assay [7] the test system is Hepatitis C virus. The assay is described as follows: Antiviral activity against HCV genotype 1b in presence of 10% FBS by real time PCR analysis.

As to `COC(=O)N[C@H](C(=O)N1C[C@H](OC)C[C@H]1c1ncc(-c2ccc(-c3ccc4c(ccc5nc([C@@H]6[C@H]7CC[C@H](C7)N6C(=O)[C@@H](NC(=O)OC)C(C)C)[nH]c54)c3)cc2)[nH]1)C(C)C`, the EC50 with Hepatitis C virus [1] is 0.05 nM; in the assay on Hepatitis C virus [2], 7 pM; with Hepatitis C virus [3], 0.02 nM; with Hepatitis C virus [4], 43 nM.

Consider `COC(=O)N[C@H](C(=O)N1CCC[C@H]1c1ncc(-c2ccc(-c3ccc4c(ccc5nc([C@@H]6CCCN6C(=O)[C@@H](NC(=O)OC)C(C)C)[nH]c54)c3)cc2O)[nH]1)C(C)C`, for which the EC50 in the assay with Hepatitis C virus [1] turned out to be 0.08 nM; in the assay with Hepatitis C virus [2] it was 4 pM; in the assay with Hepatitis C virus [3], 0.2 nM; in the assay on Hepatitis C virus [4], 201 nM.

Consider `COC(=O)N[C@H](C(=O)N1CCC[C@H]1c1ncc(-c2ccc(-c3ccc4c(ccc5nc([C@@H]6CCCN6C(=O)[C@@H](NC(=O)OC)C(C)C)[nH]c54)c3)cc2C)[nH]1)C(C)C`, for which the EC50 in the assay on Hepatitis C virus [1] came to 0.02 nM; in the assay on Hepatitis C virus [2], 2 pM; with Hepatitis C virus [3], 0.09 nM.

Regarding `COC(=O)N[C@H](C(=O)N1CCC[C@H]1c1nc2ccc3cc(-c4ccc(-c5c[nH]c([C@@H]6C[C@@H]7CN6C(=O)[C@H](C(C)C)NC(=O)OCCC/C=C/CO7)n5)cc4)ccc3c2[nH]1)C(C)C`, the EC50 with Hepatitis C virus [1] amounted to 0.01 nM; with Hepatitis C virus [2] it was 6 pM; in the assay on Hepatitis C virus [5], 0.04 nM; with Hepatitis C virus [4], 43 nM.

For the compound `COC(=O)N[C@H](C(=O)N1C[C@H](N)C[C@H]1c1ncc(-c2ccc(-c3ccc4c(ccc5nc([C@@H]6CCCN6C(=O)[C@@H](NC(=O)OC)C(C)C)[nH]c54)c3)cc2)[nH]1)C(C)C`, the EC50 came to 0.4 nM with Hepatitis C virus [1], 30 pM with Hepatitis C virus [2], 2 nM with Hepatitis C virus [3] and 987 nM in the assay on Hepatitis C virus [4].

In the case of `COC(=O)N[C@H](C(=O)N1CCC[C@H]1c1ncc(-c2ccc(-c3ccc4c(c3)c(Cl)cc3nc([C@@H]5CCCN5C(=O)[C@@H](NC(=O)OC)C(C)C)[nH]c34)cc2)[nH]1)C(C)C`, the EC50 with Hepatitis C virus [1] amounted to 0.01 nM; in the assay with Hepatitis C virus [2] it was 3 pM; in the assay with Hepatitis C virus [3], 0.004 nM; in the assay on Hepatitis C virus [4] it was 121 nM.

In the case of `COC(=O)N[C@H](C(=O)N1CCC[C@H]1c1ncc(-c2ccc(-c3ccc4c(ccc5nc([C@@H]6CCCN6C(=O)[C@@H](NC(=O)OC)C(C)C)[nH]c54)c3)cc2C2CC2)[nH]1)C(C)C`, the EC50 with Hepatitis C virus [1] was determined as 0.1 nM; with Hepatitis C virus [2], 2 pM; in the assay on Hepatitis C virus [3] it was 0.2 nM.

For the compound `COC(=O)N[C@H](C(=O)N1CCC[C@H]1c1ncc(-c2ccc(-c3ccc4c(ccc5nc([C@@H]6[C@H]7CC[C@H](C7)N6C(=O)[C@@H](NC(=O)OC)C(C)C)[nH]c54)c3)cc2)[nH]1)C(C)C`, the EC50 with Hepatitis C virus [1] was determined as 0.02 nM; in the assay with Hepatitis C virus [2] it was 5 pM; in the assay on Hepatitis C virus [3], 0.02 nM; with Hepatitis C virus [4], 93 nM.

As to `COC(=O)N[C@H](C(=O)N1CCC[C@H]1c1nc2ccc3cc(-c4ccc5c(c4)OCCCCCCOC(=O)N[C@@H](C(C)C)C(=O)N4CCC[C@H]4c4ncc-5[nH]4)ccc3c2[nH]1)C(C)C`, the 50% effective concentration (EC50) with Hepatitis C virus [1] was found to be 1 nM; in the assay with Hepatitis C virus [2], 2000 pM; with Hepatitis C virus [4] it was 857 nM.

With `COC(=O)N[C@H](C(=O)N1C[C@H](NC(C)=O)C[C@H]1c1ncc(-c2ccc(-c3ccc4c(ccc5nc([C@@H]6CCCN6C(=O)[C@@H](NC(=O)OC)C(C)C)[nH]c54)c3)cc2)[nH]1)C(C)C`, the EC50 turned out to be 0.07 nM with Hepatitis C virus [1], 10 pM in the assay with Hepatitis C virus [2], 0.1 nM with Hepatitis C virus [3] and 225 nM in the assay on Hepatitis C virus [4].

Turning to `COCCO[C@@H]1C[C@@H](c2ncc(-c3ccc(-c4ccc5c(ccc6nc([C@@H]7[C@H]8CC[C@H](C8)N7C(=O)[C@@H](NC(=O)OC)C(C)C)[nH]c65)c4)cc3)[nH]2)N(C(=O)[C@@H](NC(=O)OC)C(C)C)C1`, the EC50 with Hepatitis C virus [1] was more than 1 nM; with Hepatitis C virus [2] it was 10 pM; in the assay on Hepatitis C virus [3] it was 0.1 nM; in the assay on Hepatitis C virus [4], 404 nM.

Consider `CC(C)[C@H](NC(=O)OC1(C)CC1)C(=O)N1CCC[C@H]1c1ncc(-c2ccc(-c3ccc4c(c3)c(Cl)cc3nc([C@@H]5CCCN5C(=O)[C@@H](NC(=O)OC5(C)CC5)C(C)C)[nH]c34)cc2)[nH]1`, for which the EC50 with Hepatitis C virus [1] is more than 1 nM; in the assay with Hepatitis C virus [2] it was 4000 pM.

On to `COC(=O)N[C@H](C(=O)N1CCC[C@H]1c1ncc(-c2ccc3oc(-c4ccc(-c5c[nH]c([C@@H]6C[C@@H]7CN6C(=O)[C@H](C(C)C)NC(=O)OC/C=C/CCCO7)n5)cc4)cc3c2)[nH]1)C(C)C`, for which the EC50 in the assay on Hepatitis C virus [1] was determined as 0.4 nM; with Hepatitis C virus [2], 40 pM; with Hepatitis C virus [5], 2 nM; with Hepatitis C virus [4], 45 nM.

Regarding `COC(=O)N[C@@H]1C[C@@H](c2ncc(-c3ccc(-c4ccc5c(ccc6nc([C@@H]7CCCN7C(=O)[C@@H](NC(=O)OC)C(C)C)[nH]c65)c4)cc3)[nH]2)N(C(=O)[C@@H](NC(=O)OC)C(C)C)C1`, the EC50 with Hepatitis C virus [1] turned out to be 0.2 nM; with Hepatitis C virus [2], 9 pM; in the assay on Hepatitis C virus [3] it was 0.05 nM; in the assay with Hepatitis C virus [4] it was 80 nM.

Consider `COC(=O)N[C@H](C(=O)N1CCC[C@H]1c1ncc(-c2ccc3oc(-c4ccc(-c5c[nH]c([C@@H]6C[C@@H]7CN6C(=O)[C@H](C(C)C)NC(=O)OCCCCCCO7)n5)cc4)cc3c2)[nH]1)C(C)C`, for which the values for the EC50 in the assay with Hepatitis C virus [6] and with Hepatitis C virus [7] were 1.4 nM and 0.2 nM, respectively.

Take `COC(=O)N[C@H](C(=O)N1C[C@H](O)C[C@H]1c1ncc(-c2ccc(-c3ccc4c(ccc5nc([C@@H]6[C@H]7CC[C@H](C7)N6C(=O)[C@@H](NC(=O)OC)C(C)C)[nH]c54)c3)cc2)[nH]1)C(C)C`: the EC50 in the assay with Hepatitis C virus [1] was 0.2 nM; in the assay on Hepatitis C virus [2] it was 7 pM; in the assay with Hepatitis C virus [3] it was 0.4 nM; in the assay with Hepatitis C virus [4] it was 21 nM.

Regarding `COC(=O)N[C@H](C(=O)N1CCC[C@H]1c1nc2ccc3cc(-c4ccc(-c5c[nH]c([C@@H]6C[C@@H]7CN6C(=O)[C@H](C(C)C)NC(=O)OCCCCCCO7)n5)cc4)ccc3c2[nH]1)C(C)C`, the EC50 turned out to be 0.006 nM with Hepatitis C virus [1], 10 pM in the assay on Hepatitis C virus [2], 0.5 nM in the assay with Hepatitis C virus [5] and 188 nM with Hepatitis C virus [4].

For the compound `COC(=O)N[C@H](C(=O)N1CCC[C@H]1c1nc2ccc3cc(-c4ccc(-c5cnc([C@@H]6CC[C@H]7C(=O)N[C@@H](C(C)C)C(=O)N76)[nH]5)cc4)ccc3c2[nH]1)C(C)C`, the EC50 in the assay with Hepatitis C virus [1] is 0.3 nM; with Hepatitis C virus [2], 7 pM; in the assay on Hepatitis C virus [5], 12 nM; in the assay with Hepatitis C virus [4], 460 nM.

With `CC(C)OC(=O)N[C@H](C(=O)N1CCC[C@H]1c1ncc(-c2ccc(-c3ccc4c(c3)c(Cl)cc3nc([C@@H]5CCCN5C(=O)[C@@H](NC(=O)OC(C)C)C(C)C)[nH]c34)cc2)[nH]1)C(C)C`, the EC50 is more than 1 nM in the assay with Hepatitis C virus [1] and 35000 pM in the assay with Hepatitis C virus [2].

Regarding `COC(=O)N[C@H](C(=O)N1CCC[C@H]1c1ncc(-c2ccc(-c3ccc4c(ccc5nc([C@@H]6CCCN6C(=O)[C@@H](NC(=O)OC)C(C)C)[nH]c54)c3)cc2OCCN2CCOCC2)[nH]1)C(C)C`, the EC50 is more than 1 nM in the assay with Hepatitis C virus [1], 2000 pM in the assay with Hepatitis C virus [2], more than 10 nM in the assay with Hepatitis C virus [3] and 1340 nM in the assay with Hepatitis C virus [4].

As for `COCCOC(=O)N[C@H](C(=O)N1CCC[C@H]1c1ncc(-c2ccc(-c3ccc4c(c3)c(Cl)cc3nc([C@@H]5CCCN5C(=O)[C@@H](NC(=O)OCCOC)C(C)C)[nH]c34)cc2)[nH]1)C(C)C`, the EC50 is more than 1 nM in the assay on Hepatitis C virus [1], 15000 pM in the assay with Hepatitis C virus [2], more than 1 nM with Hepatitis C virus [3] and more than 1000 nM in the assay with Hepatitis C virus [4].

What is called EC50 is the concentration needed to bring the measured effect to its halfway point.

The record behind these values is ChEMBL document CHEMBL3822402, “Discovery of potent macrocyclic HCV NS5A inhibitors” (Bioorg Med Chem Lett, 2016).
